Experimental findings from ChEMBL document CHEMBL5705898 (Proc Natl Acad Sci U S A, 2014) are described below.

The assay has as its target T1, Histone-lysine N-methyltransferase SETD7 (Homo sapiens, UniProt Q8WTS6).
T1 sequence (Q8WTS6 whole entry): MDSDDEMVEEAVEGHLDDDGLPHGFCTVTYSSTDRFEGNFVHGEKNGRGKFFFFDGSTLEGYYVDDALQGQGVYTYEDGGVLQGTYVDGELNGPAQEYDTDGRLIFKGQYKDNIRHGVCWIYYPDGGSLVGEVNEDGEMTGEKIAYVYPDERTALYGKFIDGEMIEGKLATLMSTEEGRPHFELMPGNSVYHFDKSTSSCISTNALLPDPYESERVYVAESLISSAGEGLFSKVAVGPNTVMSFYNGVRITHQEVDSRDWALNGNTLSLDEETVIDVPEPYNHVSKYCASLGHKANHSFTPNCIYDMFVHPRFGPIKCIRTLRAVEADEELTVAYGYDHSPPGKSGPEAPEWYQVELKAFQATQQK
In words: Inhibition of wildtype full length human SETD7 (1 to 366 residues) expressed in Escherichia coli BL21 (DE3) V2R-pRARE using biotinylated H3 (1-25) peptide as substrate incubated for 1 hrs in presence of 3H-SAM by radioactivity based assay.

The IC50 is the concentration needed to halve the response being measured.

Molecules are shown by their SMILES.

For `O=C([C@H](Cc1cccc(C(F)(F)F)c1)NS(=O)(=O)c1cc(F)c2c(c1)CCNC2)N1CCCC1`, the IC50 was 1000 nM.
